Results as given in ChEMBL document CHEMBL1201862, “PubChem BioAssay data set” (2004).
Each block holds one compound with its values, some of them ahead of it. The source made the active and inactive calls.

How the values were obtained:
[1] = target: Albumin (Bos taurus, UniProt P02769); test: Counterscreen for inhibitors of T-cell receptor (TCR)-CD3 interaction: Fluorescence-based biochemical high throughput dose response assay to identify inhibitors of T-cell receptor (TCR)-CD3 interaction using a TAMRA-labeled BSA probe.; type: functional
Albumin, sequence (P02769 whole entry, the tested form may be a part): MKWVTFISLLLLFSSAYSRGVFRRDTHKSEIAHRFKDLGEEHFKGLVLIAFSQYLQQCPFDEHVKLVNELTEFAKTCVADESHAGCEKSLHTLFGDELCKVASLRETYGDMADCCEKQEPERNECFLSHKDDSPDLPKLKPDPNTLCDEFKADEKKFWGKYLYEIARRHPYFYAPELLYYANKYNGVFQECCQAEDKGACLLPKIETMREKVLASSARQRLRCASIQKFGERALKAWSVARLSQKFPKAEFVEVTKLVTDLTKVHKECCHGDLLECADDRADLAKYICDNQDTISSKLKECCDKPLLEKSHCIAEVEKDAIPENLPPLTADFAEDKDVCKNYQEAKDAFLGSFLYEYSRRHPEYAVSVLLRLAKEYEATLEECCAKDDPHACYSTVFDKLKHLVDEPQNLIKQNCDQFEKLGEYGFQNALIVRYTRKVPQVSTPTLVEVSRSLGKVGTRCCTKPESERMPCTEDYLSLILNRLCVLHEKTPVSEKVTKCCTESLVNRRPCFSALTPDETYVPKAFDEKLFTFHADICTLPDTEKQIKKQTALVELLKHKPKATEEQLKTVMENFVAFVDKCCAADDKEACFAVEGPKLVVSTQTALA

[2] = HIV-1 AD8 envelope cell-cell fusion blockers – cherry-pick, dose response (AID 652062); type: functional, cell-based;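 further: luciferase signal from cell-cell fusion driven by HIV-1 clade B AD8 Env; potency is for inhibitors of fusion seen as a drop in luminescence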
[3] = blockers of HIV-1 ZM109 envelope-driven cell-cell fusion – HeLa effector, CEM target cells, luciferase, cherry-pick, dose response (AID 652058); type: functional, cell-based;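 further: luciferase signal from HIV-1 Env mediated cell-cell fusion of effector and target cells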
[4] = blockers of HIV-1 envelope-mediated cell-cell fusion – cherry-pick, dose response (AID 652057); type: functional, cell-based
[5] = system: HeLa; test: viability loss in HeLa cells – cell-based, ATP luminescence, cherry-pick samples, cytotoxicity control, dose response (AID 687004); type: functional; conditions: Homo sapiens
[6] = reduced cellular PGC1a acetyl-lysine signal – cell-based, cherry-picked samples, dose response (AID 720514); type: functional;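 further: potency may reflect raised or lowered acetylation signal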
[7] = target: T1, Oxysterols receptor LXR-beta (Homo sapiens, UniProt P55055); test: LXR agonists, Gal4 luciferase reporter, dose response, counter-screen for ssDAF-12 agonist project, cell-based, luminescence, HEK293, S. stercoralis campaign (AID 720737); type: functional; conditions: read-out: IC50 (the source's name)
T1 sequence (P55055 whole entry): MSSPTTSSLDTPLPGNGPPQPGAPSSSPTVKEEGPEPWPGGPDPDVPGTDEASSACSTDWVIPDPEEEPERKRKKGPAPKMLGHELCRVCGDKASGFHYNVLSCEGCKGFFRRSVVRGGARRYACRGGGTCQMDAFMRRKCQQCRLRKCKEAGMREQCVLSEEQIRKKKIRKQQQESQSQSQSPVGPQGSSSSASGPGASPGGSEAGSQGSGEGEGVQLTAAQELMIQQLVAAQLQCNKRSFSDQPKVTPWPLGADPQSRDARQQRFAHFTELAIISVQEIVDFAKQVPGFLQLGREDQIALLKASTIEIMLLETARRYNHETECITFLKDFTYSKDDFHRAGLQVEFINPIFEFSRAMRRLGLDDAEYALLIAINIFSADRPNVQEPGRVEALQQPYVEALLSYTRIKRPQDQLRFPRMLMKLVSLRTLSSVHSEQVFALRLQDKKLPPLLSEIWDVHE

[8] = Luminescence-based cell-based high throughput dose response assay to identify activators of the DAF-12 from the parasite S. stercoralis (ssDAF-12).; type: functional
[9] = target: T2, Rac GTPase-activating protein 1 (Homo sapiens, UniProt Q9H0H5); test: blockers of MgcRacGAP-driven Rac1 GTP hydrolysis – biochemical, ADP Hunter fluorescence, primary and confirmatory, confirmation (AID 624330); type: functional
T2 sequence (Q9H0H5 whole entry): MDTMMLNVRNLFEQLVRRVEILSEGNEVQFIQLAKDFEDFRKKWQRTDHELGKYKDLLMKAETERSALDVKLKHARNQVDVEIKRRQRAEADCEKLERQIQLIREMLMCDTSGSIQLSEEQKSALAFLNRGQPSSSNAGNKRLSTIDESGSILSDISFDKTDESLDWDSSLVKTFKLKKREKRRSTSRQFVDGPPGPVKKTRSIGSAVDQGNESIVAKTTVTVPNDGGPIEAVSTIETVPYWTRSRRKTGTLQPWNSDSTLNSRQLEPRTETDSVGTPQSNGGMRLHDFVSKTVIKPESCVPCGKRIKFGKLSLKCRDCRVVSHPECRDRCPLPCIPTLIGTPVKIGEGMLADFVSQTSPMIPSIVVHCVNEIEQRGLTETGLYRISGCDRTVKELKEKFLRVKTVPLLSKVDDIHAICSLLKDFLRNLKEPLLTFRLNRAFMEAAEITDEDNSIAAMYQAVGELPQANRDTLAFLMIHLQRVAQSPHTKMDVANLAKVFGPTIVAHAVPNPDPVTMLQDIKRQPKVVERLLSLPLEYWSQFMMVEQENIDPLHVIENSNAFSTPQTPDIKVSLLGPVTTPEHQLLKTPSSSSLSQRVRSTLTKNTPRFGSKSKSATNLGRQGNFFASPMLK

[10] = cells; type: functional, cell-based
[11] = target: T3, Trace amine-associated receptor 1 (Homo sapiens, UniProt Q96RJ0); test: Fluorescence-based cell-based high throughput dose response assay to identify agonists of the human trace amine associated receptor 1 (TAAR1).; type: functional
T3 sequence (Q96RJ0 whole entry): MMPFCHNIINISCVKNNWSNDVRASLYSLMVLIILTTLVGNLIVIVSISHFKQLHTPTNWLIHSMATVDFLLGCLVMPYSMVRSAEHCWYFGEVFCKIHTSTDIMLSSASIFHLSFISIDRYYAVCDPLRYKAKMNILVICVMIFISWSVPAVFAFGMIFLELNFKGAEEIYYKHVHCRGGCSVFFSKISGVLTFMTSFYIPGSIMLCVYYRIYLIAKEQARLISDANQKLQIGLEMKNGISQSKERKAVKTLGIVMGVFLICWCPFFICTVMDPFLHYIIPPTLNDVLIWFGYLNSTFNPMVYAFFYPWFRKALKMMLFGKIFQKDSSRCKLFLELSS

[12] = cells; type: functional, cell-based; remark: listed apart in the source
[13] = target: T3, Trace amine-associated receptor 1; test: Counterscreen for agonists of the human trace amine associated receptor 1 (hTAAR1): Fluorescence-based cell-based high throughput dose response assay to identify hTAAR1 agonist that also desensitize TAAR1 receptor response.; type: functional
[14] = growth inhibition of yeast DHODH-expressing 3D7 parasites – SYBR Green, dry powder samples, dose response (AID 1159570); type: functional, cell-based;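 further: parasite growth measured after 72 hours of compound exposure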
[15] = P. falciparum Dd2 growth inhibitors, dose response, SYBR Green, cherry-picked samples (AID 1159567); type: functional, cell-based
[16] = growth inhibition of PfATP4-mutant resistant parasites – NITD609-resistant line, SYBR Green, dry powder, dose response (AID 1159571); type: functional, cell-based;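 further: parasites synchronized at ring stage by sorbitol before testing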
[17] = toxicity to human HepG2 hepatoma cells – cell-based, plate reader, dry powder samples, cytotoxicity control, dose response (AID 1159569); type: functional;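 further: inhibitor potency with signal falling toward the positive control level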
[18] = Dd2 malaria parasite growth inhibition potency – SYBR Green, dry powder samples, dose response (AID 1159566); type: functional, cell-based;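 further: potency for growth inhibition with lower SYBR green DNA signal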
[19] = toxicity to human hepatoma HepG2 cells – cell-based, cherry-picked samples, cytotoxicity control, dose response (AID 1159577); type: functional

IC50 [1]: > 94.1 µM (inactive)
SMILES: O=C(CNC(=O)c1ccccc1F)NNC(=O)c1ccccc1O

SMILES: C[C@H]1CN([C@@H](C)CO)C(=O)Cc2cc(NC(=O)Nc3ccccc3)ccc2O[C@H]1CN(C)S(=O)(=O)c1cccs1
AC50 [2]: 8.52 µM (active)
AC50 [3]: 1.55 µM (active)
AC50 [4]: 1.36 µM (active)

SMILES: CCCNC(=O)C[C@@H]1CC[C@@H]2[C@H](COc3ccc(NC(=O)CCC)cc3C(=O)N2C)O1
AC50 [5]: 9.9 µM (active)

SMILES: COC(=O)C1=C(C)N(Cc2ccc(Br)cc2)C(=S)NC1c1cccc(Br)c1 (centres undefined)
AC50 [5]: 38.1 µM (active)

SMILES: Cc1cccc(S(=O)(=O)N(C)C[C@@H]2OCc3cn(nn3)CCCC(=O)N([C@@H](C)CO)C[C@H]2C)c1
AC50 [6]: 34.4 µM (active)

SMILES: C[C@H]1CN([C@@H](C)CO)C(=O)c2cccc(NC(=O)Nc3ccc(C(F)(F)F)cc3)c2O[C@H]1CN(C)C(=O)Nc1cccc2ccccc12
AC50 [6]: 8.85 µM (active)

SMILES: Cc1ccc(/C=N/Nc2ccc(Cl)c(C(=O)O)c2)s1
EC50 [7]: > 67.6 µM (inactive)
IC50 [8]: > 67.6 µM (inactive)
IC50 [9]: 80.5 µM (active)

SMILES: COc1ccc(/C=N/CC2COc3ccccc3O2)cc1OC (centres undefined)
EC50 [10]: > 29.9 µM (inactive)
EC50 [11]: 1.44 µM (active)
IC50 [12]: > 29.9 µM (inactive)
IC50 [13]: 18.9 µM (inactive)

SMILES: COc1ccc2c3c([nH]c2c1)[C@H](CO)N(C(=O)Nc1ccc(F)cc1)CC31CCN(S(=O)(=O)c2cccc(F)c2)CC1
AC50 [14]: 1.22 µM (active)
AC50 [15]: 0.883 µM (active)
AC50 [16]: 0.103 µM (active)
AC50 [17]: 22 µM (active)
AC50 [18]: 0.751 µM (active)

SMILES: C[C@H]1CN([C@@H](C)CO)C(=O)c2c(c3ccccc3n2C)-c2ccccc2CO[C@@H]1CN(C)Cc1cccc2c1OCCCO2
AC50 [15]: 4.74 µM (active)
AC50 [19]: 29.8 µM (active)

SMILES: COc1ccc(C#Cc2ccc3c(c2)[C@H]2[C@H](CCN2Cc2ccncc2)[C@@H](CO)N3)cc1
AC50 [14]: 1.95 µM (active)
AC50 [15]: 2.38 µM (active)
AC50 [16]: 1.67 µM (active)
AC50 [17]: 62.5 µM (active)
AC50 [18]: 1.16 µM (active)

SMILES: OC[C@@H]1[C@H](c2ccc(C3=CCCC3)cc2)[C@H]2CN(CCC(F)(F)F)CCCCN12
AC50 [15]: 1.2 µM (active)
AC50 [19]: 18.7 µM (active)
